What was measured:
tyrosinase = assay: Aurone synthesis activity of tyrosinase; format: biochemical, Neurospora; details: HPLC
Experimental: After mixing tyrosinase (Sigma catalog no. T7755; 0.04 mg/ml, 10 μl), 0.1 M sodium phosphate buffer (pH 6.5, 335 μl), 9% CHAPS (20 μl) and milli-Q water (20 μl), the mixture was incubated for 10 minutes at 30° C., followed by the addition of tetrahydroxychalcone (THC, 4.3 mM in ethanol, 15 μl), stirring immediately and reacting for 30 minutes at 30° C. After reaction, 100 μl of reaction stopping solution (10% trifluoroacetate solution containing 90% acetonitrile) was added to the reaction mixture to stop the reaction, followed by HPLC analysis. Analysis was performed in the same manner as described in Example 3. Water was used instead of tyrosinase as a control.
In addition, the reaction was carried out under the same conditions using pentahydroxychalcone (PHC) instead of THC as a substrate, and using 0.116 M sodium citrate phosphate buffer (pH 5.4) as a buffer. Similarly, water was used instead of tyrosinase as a control.

aurone synthase = assay: Measurement of aurone synthase activity (HPLC); format: biochemical, snapdragon; details: for Conversion of substrate to aureusidin by purified aurone synthase: product confirmed by HPLC analysis
Experimental: The reaction was started by adding 5 μl of THC, having an absorbance of 462 at 366 nm in ethanol, to 50 μl of 1 M sodium acetate buffer (pH 5.0) and 350 μl of crude enzyme solution diluted with water. After allowing to react for 1 hour at 30° C., and adding 100 μl of an aqueous solution of 90% (v/v) acetonitrile containing 1% (v/v) TFA to stop the reaction, activity was measured by HPLC. The crude enzyme solution in each purification step described later in Example 4 was measured.
The YMC J'Sphere ODS M80 column (4.6×150 mm) was used and the flow rate was set at 0.7 ml/min. Using a 0.1% aqueous solution of TFA as solvent A, and a 90% aqueous solution of acetonitrile containing 0.1% TFA as solvent B, a sample was injected into the column, after which the ratio of A:B was held at 7:3 for first 3 minutes, and then changed to 6:4 by a linear concentration gradient for next 10 minutes. This concentration was maintained for 5 minutes. After changing the ratio of A:B to 7:3 for next one minute, this concentration was maintained for 5 minutes.

| Compound | Reaction product formed from substrate by tyrosinase (tyrosinase; 0.1 M sodium phosphate buffer pH 6.5, 30 minutes at 30° C.) | Conversion of substrate to aureusidin by purified aurone synthase (aurone synthase) | Change of enzyme activity on addition (aurone synthase; hydrogen peroxide added) | Reaction product formed from substrate by tyrosinase (tyrosinase; 0.116 M sodium citrate phosphate buffer pH 5.4, 30 minutes at 30° C.) |
| --- | --- | --- | --- | --- |
| O=C(/C=C/c1ccc(O)cc1)c1c(O)cc(O)cc1O [THC, tetrahydroxychalcone] | reaction product aureusidin | converts both THC and pentahydroxychalcone to aureusidin |  |  |
| OO [hydrogen peroxide] |  |  | activity increased somewhat |  |
| O=C(/C=C/c1ccc(O)c(O)c1)c1c(O)cc(O)cc1O [pentahydroxychalcone] |  | converts both THC and pentahydroxychalcone to aureusidin |  | reaction product aureusidin |

— patent publication US7592436B2, “Gene encoding a protein having aurone synthesis activity” (International Flower Developments Proprietary Limited, priority 1998, dated 2009)
